Consider 3 molecules from publication PMC10683482, “Offsetting Low-Affinity Carbohydrate Binding with Covalency to Engage Sugar-Specific Proteins for Tumor-Immune Proximity Induction” (ACS Central Science, 2023).

This assay deals with human serum antirhamnose antibody (IgG and IgM). The assay can be described thus: ELISA covalent engagement of serum anti-rhamnose antibody. The note with it: 2 μM compound, 2% human serum, 48 h; rhamnose 100 mM added after incubation. It counts as binding. The protocol: Figure 2 Capacity of Rha-cARMs to specifically covalently engage monoclonal anti-23F and serum anti-rhamnose. A. Chemical structures of the molecules investigated. B. Assessment of covalent vs noncovalent (cARM/ARM) engagement of human serum antirhamnose antibody via an ELISA assay. Each ARM/cARM (2 μM) was incubated with 2% human serum for 48 h and subsequently incubated directly on a streptavidin ELISA plate. Recruitment was evaluated by the addition of anti-IgG or anti-IgM HRP-conjugated secondary antibody with subsequent chromogenic substrate addition. “Comp” represents the addition of competitor rhamnose (500 mM) during 48 h of incubation. “Quench” refers to the addition of competitor rhamnose (100 mM) prior to ELISA plate binding but after 48 h of reaction incubation. C. SDS-PAGE fluorescent image of anti-23F antibody covalently labeled by fluorophore substituted Rha-cARMs (6–8). A representative protein stain associated with each gel is included on the left side of the fluorescent gel images. In all cases, 2 μM anti-23F antibody is incubated with 4 μM cARM (2 equiv) for 24 h in PBS spiked with 10% human serum. Where noted, L-rhamnose (100 mM, Rha. C) was used during incubation as a competitor for specific covalent labeling. Where noted, a free fluoresceine competitor (2.5 mM, Fluor. C) was used to distinguish fluorescein-promoted covalent labeling from rhamnose-promoted. The darker background in gels corresponding to cARM 6, 7 is attributed to the differing capacity of free cARM-fluorophore (fluoroscein vs A647) to be retained in gel, as well as an alternative imaging channel (Cy2 for fluorescein, Cy5 for A647). […] D. Kinetic SDS-PAGE fluorescence imaging experiment to determine Rha-AI-cARM/anti-23F antibody labeling kinetics using A647-cARM (8). cARM 8 (2–100 μM) was incubated with anti-23F antibody (2 μM) for up to 4 h. A representative fluorescence gel image is included corresponding to compound 8 (50 μM) incubated with either anti-23F antibody or isotype human IgG. Densitometry analysis with ImageJ was used to quantify relative band intensities. […] The error is calculated by alternative fits of initial rates data (all within the linear labeling range).
Next, we tested if cARM tool compounds can selectively label endogenous human polyclonal antirhamnose antibodies via ELISA (4 α-O rhamnose or 5 α-S rhamnose) (Figure 2B). cARMs (4, 5) and noncovalent analog ARMs (1, 2) were incubated with 2% human serum for 48 h followed by addition to a streptavidin-ELISA plate. Antibody recruitment to the plate surface was measured via the addition of HRP-conjugated anti-IgG or anti-IgM secondary antibody, followed by a chromogenic substrate. […] In the absence of a competitor, we observed robust absorbance signal in samples incubated with cARM. […]
For `C[C@@H]1O[C@@H](OCc2cn(CCOCCNC(=O)OCCOCCOCCOCCOCCOCCOCCOCCNC(=O)CCCC[C@@H]3SC[C@@H]4NC(=O)N[C@@H]43)nn2)[C@H](O)[C@H](O)[C@H]1O` [compound 1], the “antibody binding signal, quench control” value was “baseline signal”.

Turning to `C[C@@H]1O[C@@H](SCc2cn(CCOCCNC(=O)OCCOCCOCCOCCOCCOCCOCCOCCNC(=O)CCCC[C@@H]3SC[C@@H]4NC(=O)N[C@@H]43)nn2)[C@H](O)[C@H](O)[C@H]1O` [compound 2], the “antibody binding signal, quench control” value is recorded as “baseline signal”.

Consider `C[C@@H]1O[C@@H](OCc2cn(CCc3cn(C(=O)OCCOCCOCCOCCOCCOCCOCCOCCNC(=O)CCCC[C@@H]4SC[C@@H]5NC(=O)N[C@@H]54)cn3)nn2)[C@H](O)[C@H](O)[C@H]1O` [compound 4], for which the “antibody binding signal, quench control” value is “significant antibody binding signal”.
